Data taken from article PMC12751141, “Disrupting α-Synuclein–ClpP interaction restores mitochondrial function and attenuates neuropathology in Parkinson’s disease models” (Molecular Neurodegeneration, 2025).

Tests used:
[1] = tested on: A53T-αSyn PD patient iPSC-derived DA neurons; assay: Immunofluorescence / fractionation western blot in A53T-αSyn iPSC-derived (DA) neurons; format: cell-based, human; details: 1 µM, five days
Text: PD iPS cells lines (αSyn A53T, NN0004337, donor) and its isogenic corrected control line (NN0004344) were obtained from RUCDR Infinite Biologics. The iPS cells were differentiated into dopaminergic neuron-enriched neuronal culture with the protocol described previously. Briefly, iPS cell colonies were disassociated with accutase (Invitrogen), plated onto 6-well plates pre-coated with 2.5% Matrigel (BD Biosciences) and allowed to reach 80% confluence in mTeSR medium (Stem Cell Technology). For the first 10 days, cells were treated with SB431542 (10 µM; Tocris Bioscience) and Noggin (100 ng/ml) in Neural Media (NM) with FGF2 ([…]) and EGF ([…]). NM media contained: Neurobasal and DMEM/F12 (1:1), B-27 Supplement Minus Vitamin A (50×, Invitrogen), N2 Supplement (100X, Invitrogen), GlutaMAX (Invitrogen, 100×), 100 units/ml penicillin and 100 µg/ml streptomycin (Fisher); for the next 4 days, cells were treated with human recombinant Sonic hedgehog (SHH, 200 ng/ml) in neuronal differentiation medium. Neuronal differentiation medium contained Neurobasal and DMEM/F12 (1:3), B27, N2, GlutaMax and PS. In the following 3 days, cells were switched to BDNF (20 ng/ml), ascorbic acid (200 µM, Sigma-Alderich), SHH (200 ng/ml), and FGF8b (100 ng/ml) in neuronal differentiation medium. Thereafter, cells were treated with BDNF, ascorbic acid, GDNF (10 ng/ml), TGF-b (1 ng/ml), and cAMP ([…], Sigma-Aldrich). All growth factors were purchased from Pepro Tech (Rocky Hill, NJ, USA). After 20 days of induction, neurons were treated daily with TAT or CS2 peptides at 1µM and were fixed for immunostaining at 26 days of induction. The imaging was observed by confocal microscope (Fluoview FV3000, Olympus).
Cells were grown on coverslips, fixed with 4% paraformaldehyde for 20 min at room temperature, permeabilized with 0.1% Triton X-100 in PBS, and blocked with 2% normal goat serum. The cells were incubated with the indicated primary antibodies overnight at 4℃. After washing with PBS, the cells were incubated with Alexa Fluor 488/568 or 405/568 secondary antibody (1:500; Thermo Fisher Scientific) for 2 h at room temperature. The nuclei were counterstained with DAPI (1:10000; Sigma-Aldrich). Images of the staining were acquired using a Fluoview FV3000 confocal microscope (Olympus).
Fig. 6 CS2 treatment is protective in DA neurons derived from PD patient iPSCs. (A) Representative images of MitoTracker staining and ClpP-αSyn PLA in A53T αSyn or isogenic control (ISO) iPSCs-derived neurons (scale bar = 30 μm). (B) Representative images of ClpP-αSyn PLA in A53T αSyn or ISO iPSCs-derived neurons, which were treated with TAT or CS2 peptide (scale bar = 30 μm). […] (C) Representative blots of co-immunoprecipitation assay assessing ClpP-αSyn in A53T αSyn or ISO iPSCs-derived neurons, which were treated with TAT or CS2 peptide. […] (D) Representative images of ClpP staining in […] positive (TH^+) iPSCs-derived DA neurons treated with TAT or CS2 peptide (scale bar = 30 μm). […] (E) Representative images of pS129-αSyn (pS129) staining in TH^+ iPSCs-derived DA neurons treated with TAT or CS2 peptide (scale bar = 30 μm). […] (F) Representative images of PSD95, Synapsin1 (SYN1) and MAP2 staining in iPSCs-derived neurons treated with TAT or CS2 peptide (scale bar = 30 μm).
(C) Detergent soluble and insoluble fractions were extracted from iPSC-derived neurons and subjected for western blot analyses. Shown are the representative blots of 3 independent experiments.

[2] = tested on: mThy1-hSNCA mice (midbrain); assay: Midbrain western blot / co-immunoprecipitation in mThy1-hSNCA mice; format: in vivo, mouse
Protocol: Tissues were homogenized and incubated on ice for 30 min in total lysis buffer (50 mM Tris–HCl, pH 7.5, 150 mM NaCl, 1% Triton X-100, and protease inhibitor). Tissues were then spun at 12,000 rpm for 10 min at 4 °C; the resulting supernatant was triton-soluble fraction. The pellet was further suspended in total lysis buffer with 1% SDS, sonicated and incubated at 100 °C for 3 min, and followed by 20-s vortex. After two more repeats of 100 °C incubation and vortex, the solution was spun at 12,000 rpm for 10 min at 4 °C; the resulting supernatant was triton-insoluble fraction.
Protein concentrations were measured using the Bradford assay. Proteins (30 µg) were then resuspended in Laemmni buffer, loaded on sodium dodecyl sulfate-polyacrylamide gel electrophoresis gels, and transferred to nitrocellulose membranes. The membranes were probed with the indicated antibodies and visualized by electrochemiluminescence.
C57BL/6 N-Tg (Thy1-SNCA)15Mjff/J (JAX: 017682) breeders (C57Bl/6NJ genetic background) were purchased from Jackson Laboratories. The mice were mated, bred, and genotyped in the animal facility of Case Western Reserve University. All mice were maintained at a 12-hour light/dark cycle (on 6 am, off 6 pm). All randomization and peptide treatments in mThy1-hSNCA mice were prepared by an experimenter not associated with the behavioral and neuropathology analysis. Only male mice were used in the study. mThy1-hSNCA transgenic mice and their age-matched WT littermates were implanted with a 28-day subcutaneous osmotic pump (Alzet, Cupertino CA, Model 2004) containing either TAT control peptide or CS2 peptide, which delivered the peptides at indicated rate (1 or 3 or 10 mg/kg/day). The pump was replaced once every four weeks. All mice were sacrificed at age of 10-month for neuropathology assessment.
Cells or tissues were lysed in total lysis buffer (50mM Tris-HCl, pH 7.5, 150mM NaCl, 1% Triton X-100, and protease inhibitor). Total protein lysates (800 µg) were incubated with the indicated antibodies overnight at 4 °C followed by the addition of protein A/G beads (sc-2003, Santa Cruz) for 2 h at 4 °C. Various recombinant αSyn and Clpp (500 ng) were incubated in in vitro interaction buffer (20mM Tris-HCl pH 7.5, 100mM KCl, 2mM MgCl2 and 0.1% Triton-X100) for 30 min at room temperature, and then incubated with indicated antibodies overnight at 4 °C followed by the addition of protein A/G beads for 2 h at 4 °C. The beads with immuno-precipitates were pulled down at 4000 g and washed four times with total lysis buffer/in vitro interaction buffer in the presence of 0.1% Triton X-100 and were analyzed by western blot analysis.

[3] = A53T-αSyn iPSC neurons, n = 6–7
[4] = 3 and 10 mg/kg/day s.c., 8 weeks, n = 3 mice/group

CC(C)[C@H](NC(=O)CNC(=O)CNC(=O)CCCCCNC(=O)[C@H](CCCNC(=N)N)NC(=O)[C@H](CCCNC(=N)N)NC(=O)[C@H](CCCNC(=N)N)NC(=O)[C@H](CCC(N)=O)NC(=O)[C@H](CCCNC(=N)N)NC(=O)[C@H](CCCNC(=N)N)NC(=O)[C@H](CCCCN)NC(=O)[C@H](CCCCN)NC(=O)[C@H](CCCNC(=N)N)NC(=O)CNC(=O)[C@@H](N)Cc1ccc(O)cc1)C(=O)N[C@H](C(=O)N[C@H](C(=O)N[C@@H](C)C(=O)O)[C@@H](C)O)C(C)C [CS2, TAT-C6-GGVVTA]
insoluble αSyn accumulation, iPSC neurons ([1]; 3 independent experiments): reduced the expression of pS129-αSyn and the accumulation of insoluble αSyn | pS129-αSyn expression, iPSC DA neurons ([1]; n = 5–7): reduced the expression of pS129-αSyn | ClpP protein level in TH+ DA neurons ([1]; n = 6): significantly restored ClpP protein levels | PSD95 density [1, 3]: restored the density of both PSD95 and Synapsin1 | Synapsin1 density [1, 3]: restored the density of both PSD95 and Synapsin1 | ClpP–αSyn interaction in midbrain ([2]; 3 mg/kg/day s.c., anti-ClpP IP, n = 3 mice/group): abolish the interaction between ClpP and αSyn | other mitochondrial matrix proteins in midbrain ([2]; 3 mg/kg/day s.c., western blot of LonP, ClpX, n = 3–5 mice/group): without affecting other mitochondrial matrix proteins | ClpP expression in midbrain [2, 4]: restored ClpP expression in the midbrain | detergent-insoluble αSyn in midbrain [2, 4]: reduced levels of soluble pS129-αSyn and detergent-insoluble αSyn | soluble pS129-αSyn in midbrain [2, 4]: reduced levels of soluble pS129-αSyn | ClpP–αSyn interaction, 3 vs 10 mg/kg/day ([2]; s.c., comparison with 10 mg/kg/day): without disparity from 10 mg/kg/day
